Test results published in patent publication US6461997B1, “Triazole sulfones having herbicidal activity” (Monsanto Technology LLC, priority 1999, dated 2002).

Experiments:
[1] = tested on: POROL (common purslane); assay: Pre-emergence herbicidal activity, warm season; assay type: in vivo, Portulaca oleracea; conditions: GR80 = lowest tested rate (300, 100, 30, 10 g/ha) with 80% or greater inhibition; approx. 14 days after treating; 30/21° C.
Outline: (§1)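 GR80 values derive from percent inhibition relative to untreated plants, read roughly 14 days after sowing and pre-emergence soil-surface treatment (compound in 50:50 acetone/water; rates typically 10, 30, 100, 300 g/ha). Warm-season weeds grew at 30/21° C day/night, cool-season ones at 18/13° C; an asterisk marks activity without reaching 80% at the highest rate.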

[2] = tested on: SINAR (wild mustard); assay: Pre-emergence herbicidal activity, cool season; assay type: in vivo, Sinapis arvensis; conditions: lowest tested rate with 80% or greater inhibition; rates 300, 100, 30, 10 g/ha; about 14 days
Outline: as §1

[3] = tested on: VERPE (creeping speedwell); assay: Pre-emergence herbicidal activity, cool season; assay type: in vivo, Veronica persicaria; conditions: lowest tested rate with 80% or greater inhibition; rates 300, 100, 30, 10 g/ha; about 14 days
Outline: as §1

[4] = tested on: LAMPU (purple deadnettle); assay: Pre-plant incorporated (PPI) herbicidal activity, cool season; assay type: in vivo, Lamium purpureum; conditions: for Percent inhibition LAMPU: weed, PPI application; for PPI activity GR80, LAMPU: pre-plant incorporated, lowest tested rate with 80% or greater inhibition, about 14 days
Procedure: (§2) In another set of tests, the pre-plant incorporated (PPI) activity of compounds of this invention was evaluated on the same species as for the pre-emergence tests described above. In the PPI tests the following procedure, designed to simulate PPI application, was used.
(§3) A pre-prepared topsoil mixture (described above) was placed in a pot and compacted to a depth of 1.0 to 1.25 cm from the top of the pot. Seeds of each of several monocotyledonous and dicotyledonous annual plant species were placed on top of the soil. A sufficient quantity of soil to cover the seeds and level fill the pot was weighed into an open container. A known amount of the test compound was dissolved or suspended in an organic solvent and applied by spraying to this cover soil. The cover soil was thoroughly mixed to distribute the test compound throughout the cover soil, and was then applied as a cover layer over the seeds. Untreated soil was used as a cover layer for control pots. After treatment the plants were placed in a greenhouse where they received 0.64 cm of overhead irrigation. All subsequent watering consisted of a light overhead mist and/or subirrigation as needed for germination and growth. Tables 9 and 10 below relate to warm season plant species which were placed after pre-emergence treatment in a greenhouse with a 30/21° C. day/night temperature regime. Tables 11 and 12 below relates to cool season plant species placed after pre-emergence treatment in a greenhouse or growth chamber with an 18/13° C. day/night temperature regime. Only the compounds of Examples 1, 6, 8, 11, 13 and 15-20 were included in PPI tests.
(§4) Approximately 14 days after planting and treating, the plants were observed and herbicidal efficacy recorded as percent inhibition by comparison with untreated plants.

[5] = tested on: ALOMY (blackgrass); assay: as above; assay type: in vivo, Alopecurus myosuroides; conditions: for Percent inhibition ALOMY: weed, PPI application; for PPI activity GR80, ALOMY: pre-plant incorporated, lowest tested rate with 80% or greater inhibition, about 14 days
Procedure: as §2, §3, §4

[6] = tested on: XANST (cocklebur); assay: Pre-plant incorporated (PPI) herbicidal activity, warm season; assay type: in vivo, Xanthium strumarium; conditions: PPI application
Procedure: as §2, §3, §4

[7] = tested on: ALOMY (blackgrass); assay: Post-emergence herbicidal activity, cool season; assay type: in vivo, Alopecurus myosuroides; conditions: abraded plants sprayed at 300, 100, 30 and 10 g/ha; about 14 days after treatment
Procedure: (§5) In another set of tests, the post-emergence activity of compounds of this invention was evaluated on the cool season species listed above. The following procedure was used.
(§6) A pre-prepared topsoil mixture (described above) was placed in a pot and compacted to a depth of 1.0 to 1.25 cm from the top of the pot. Seeds of each of several monocotyledonous and dicotyledonous annual plant species were placed on top of the soil. The seeds were covered with a mixture of 50% topsoil and 50% Rediearth™ in sufficient quantity to level-fill the pots. The pots were then placed on a greenhouse bench and subirrigated as needed.
(§7) When plants growing from the seeds had emerged and reached a suitable growth stage for post-emergence treatment, typically 9 to 14 days after planting, above-ground parts of the plants were subjected to a pre-treatment involving abrasion to create greater opportunity for foliar uptake of subsequently applied compounds. Abrasion was performed using garnet 200w particles applied with a Sears Craftsman hand-held sandblaster operated at approximately 850 kPa (50 psig) pressure.
(§8) A known amount of each test compound dissolved or suspended in an appropriate organic solvent was diluted with a 50:50 mix of acetone and water and applied to the plants by spraying with a standard spray nozzle in a spray volume of […] at a spray pressure of 511 kPa (30 psig). Only the compounds of Examples 1, 8-15 and 17-22 were included in post-emergence tests. Application rates for these compounds were 300, 100, 30 and 10 g/ha. Control plants were abraded but not sprayed.
(§9) After treatment the plants were placed in a greenhouse with an 18/13° C. day/night temperature regime and were subsequently watered as needed for growth. Approximately 14 days after treatment, the plants were observed and herbicidal efficacy recorded as percent inhibition by comparison with control plants. GR80 values were assigned for each compound as described above for the pre-emergence tests.

[8] = tested on: BROTE (downy brome); assay: Post-emergence herbicidal activity, cool season; assay type: in vivo, Bromus tectorum; conditions: abraded plants sprayed at 300, 100, 30 and 10 g/ha; about 14 days after treatment
Procedure: as §5, §6, §7, §8, §9

[9] = tested on: AVEFA (wild oat); assay: Post-emergence herbicidal activity, cool season; assay type: in vivo, Avena fatua; conditions: abraded plants sprayed at 300, 100, 30 and 10 g/ha; about 14 days after treatment
Procedure: as §5, §6, §7, §8, §9

[10] = tested on: AGSST (creeping bentgrass); assay: Post-emergence herbicidal activity, cool season; assay type: in vivo, Agrostis stolonifera; conditions: abraded plants sprayed at 300, 100, 30 and 10 g/ha; about 14 days after treatment
Procedure: as §5, §6, §7, §8, §9

Row | SMILES | Pre-emergence activity (GR80) POROL [1] [g/ha] | Pre-emergence activity GR80, SINAR [2] [g/ha] | Pre-emergence activity GR80, VERPE [3] [g/ha] | Percent inhibition LAMPU ([4]; 30 g/ha) [%] | Percent inhibition LAMPU ([4]; 100 g/ha) [%] | Percent inhibition LAMPU ([4]; 300 g/ha) [%] | Percent inhibition LAMPU ([4]; 900 g/ha) [%] | Percent inhibition ALOMY ([5]; 30 g/ha) [%] | Percent inhibition ALOMY ([5]; 100 g/ha) [%] | Percent inhibition ALOMY ([5]; 300 g/ha) [%] | Percent inhibition ALOMY ([5]; 900 g/ha) [%] | Percent inhibition XANST ([6]; 30 g/ha) [%] | Percent inhibition XANST ([6]; 100 g/ha) [%] | Percent inhibition XANST ([6]; 300 g/ha) [%] | Percent inhibition XANST ([6]; 900 g/ha) [%] | PPI activity GR80, LAMPU [4] [g/ha] | PPI activity GR80, ALOMY [5] [g/ha] | Percent inhibition LAMPU ([4]; 10 g/ha) [%] | Percent inhibition ALOMY ([5]; 10 g/ha) [%] | Percent inhibition XANST ([6]; 10 g/ha) [%] | other results
1 | CCN(CC)C(=O)n1cnc(S(=O)(=O)C(F)(F)F)n1 [Example 2] | 100 | 30 | 10 | 30 | 70 | 95 | 100 | 50 | 90 | 100 | 100 | 0 | 0 | 0 | 0 |  |  |  |  |  | 
2 | CCN(CC)C(=O)n1cnc(S(=O)(=O)C(F)(F)Cl)n1 [Example 3] | 100 | 300 | 100 | 60 | 95 | 100 | 100 | 60 | 90 | 99 | 100 | 0 | 0 | 0 | 60 |  |  |  |  |  | 
3 | CCN(CC)C(=O)n1cnc(S(=O)(=O)C(F)(F)C(F)(F)Br)n1 [Example 4] | 100 | 30 | 10 | 40 | 80 | 80 | 90 | 70 | 95 | 100 | 100 | 0 | 0 | 0 | 40 |  |  |  |  |  | 
4 | CCN(CC)C(=O)n1cnc(S(=O)(=O)C(F)(F)C(=O)c2ccccc2)n1 [Example 6] |  | 300 | 300 |  |  |  |  |  |  |  |  |  |  |  |  | 300 | 300 |  |  |  | 
5 | CCN(CC)C(=O)n1cnc(S(=O)(=O)C(F)(F)SCc2ccccc2)n1 [Example 10] |  | 100 | 100 | 0 |  | 0 | 50 | 50 | 100 | 95 | 100 | 0 | 0 | 0 | 10 |  |  | 0 | 0 | 0 | Post-emergence activity GR80, ALOMY [7]: [empty]; Post-emergence activity GR80, BROTE [8]: [empty]; Post-emergence activity GR80, AVEFA [9]: [empty]; Post-emergence activity GR80, AGSST [10]: [empty]
6 | CCN(CC)C(=O)n1cnc(S(=O)(=O)C(F)(F)SCC(=O)OC)n1 [Example 11] |  | 100 | 100 | 0 | 0 | 0 | 0 | 0 | 20 | 45 | 100 | 0 | 0 | 0 | 0 | 300 | 300 | 0 | 0 | 0 | Post-emergence activity GR80, ALOMY [7]: [empty]; Post-emergence activity GR80, BROTE [8]: [empty]; Post-emergence activity GR80, AVEFA [9]: [empty]; Post-emergence activity GR80, AGSST [10]: [empty]
7 | CCN(CC)C(=O)n1cnc(S(=O)(=O)C(F)(F)C(F)F)n1 [Example 16] | 100 | 100 | 100 | 80 | 90 | 80 | 90 | 95 | 100 | 100 | 100 | 0 | 0 | 0 | 95 | 10 | 30 | 50 | 40 | 0 | 
